# In patent US20250262169A1, “METHODS OF TREATING COENZYME Q10 DEFICIENCY” (BPGbio, Inc., priority 2024, published 2025):
# Assays:
# SH-SY5Y cell line = settings: cited from earlier work
# [1] = cited from earlier work
# [2] = rats, oral; cited from earlier work
# [3] = cited from earlier work; remark: listed apart in the source
# COQ2 = biological target: T1, COQ2 (Homo sapiens, UniProt Q96H96); settings: HL-60 cells; cited from earlier work
# T1 construct: host or cells: HL-60 cells (endogenous enzyme)
# T1 sequence (Q96H96 35-371): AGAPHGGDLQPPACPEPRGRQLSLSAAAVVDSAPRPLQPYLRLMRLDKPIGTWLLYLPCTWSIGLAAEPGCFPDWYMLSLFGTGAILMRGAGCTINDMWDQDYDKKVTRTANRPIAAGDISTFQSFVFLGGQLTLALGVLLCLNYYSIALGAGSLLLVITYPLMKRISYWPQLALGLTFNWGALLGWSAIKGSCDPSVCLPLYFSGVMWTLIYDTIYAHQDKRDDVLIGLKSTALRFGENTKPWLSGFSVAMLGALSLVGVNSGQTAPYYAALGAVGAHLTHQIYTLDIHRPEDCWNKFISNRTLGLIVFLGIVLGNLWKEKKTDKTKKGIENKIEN
# SH-SY5Y cells = test: Oxidized CoQ10 levels in PABA-induced CoQ10 deficient neuronal cells; assay type: cell-based; settings: 1 mM PABA for 5 days
# Source text: An established model of CoQ10 deficiency was used to study the effects of BPM31510 in vitro. […] A neuronal cell model of CoQ10 deficiency by treatment of the neuronal SH-SY5Y cell line with PABA has previously been established. In this model, a significant reduction of cellular ATP production and increase in mitochondrial reactive oxygen species (ROS) was observed. […] Therefore, this PABA-induced CoQ10 deficient in vitro model was used to evaluate the potency of BPM31510 to restore ATP levels and reduce mitochondrial ROS.
# SH-SY5Y cells were pretreated for 5 days with 1 mM PABA or vehicle in all experiments.
# [4] = CoQ10 supplementation 2.5 μM and 5 μM
# [5] = young rats, after four days of dosing
Compound,electron transport chain (ETC) activities (SH-SY5Y cell line; [4]),mitochondrial oxidative stress (SH-SY5Y cell line; [4]),exogenous CoQ10 required to restore ETC activities (SH-SY5Y cell line; PABA treated SH-SY5Y) [µM],"correction of ATP and ROS levels (SH-SY5Y cell line; higher concentrations (>10 μM), reports in literature)",solubility in water [1],orally-administered CoQ10 absorbed [2],"concentration of CoQ10 in brain ([3]; 1-2 month old animals, oral administration)","CoQ10 in cerebral tissues ([3]; 12 month old and 24 month old rats, oxidized and reduced forms)","concentration in heart or kidney [3, 5]","plasma, liver, and spleen concentrations [3, 5]",COQ2 activity (COQ2),reduction of oxidized CoQ10 levels (SH-SY5Y cells)
"COC1=C(OC)C(=O)C(C/C=C(\C)CC/C=C(\C)CC/C=C(\C)CC/C=C(\C)CC/C=C(\C)CC/C=C(\C)CC/C=C(\C)CC/C=C(\C)CC/C=C(\C)CCC=C(C)C)=C(C)C1=O [CoQ10, Coenzyme Q10]",unable to fully restore,effective at significantly reducing,> 10,not complete,insoluble in water,2-3%,did not increase,accumulation of CoQ10 in cerebral tissues,no increase,increased,–,–
"Nc1ccc(C(=O)O)cc1 [PABA, Para-aminobenzoic acid]",–,–,–,–,–,–,–,–,–,–,inhibit COQ2 activity,approximately 90%
